Test results: patent US12178818B2, “Methods for treating immune thrombocytopenia by administering (R)-2-[3-[4-amino-3-(2-fluoro-4-phenoxy-phenyl)pyrazolo[3,4-d]pyrimidin-1-yl]piperidine-1-carbonyl]-4-methyl-4-[4-(oxetan-3-yl)piperazin-1-yl]pent-2-enenitrile” (Principia Biopharma Inc., priority 2019, dated 2024)

How the values were obtained:
[1] = system: 251-kinase panel; test: 251-kinase panel, kinase selectivity; format: biochemical; conditions: 1 μM
[2] = system: human B cell activation; test: human B cell activation in vitro; format: cell-based
[3] = system: Fc receptor signaling; test: antibody mediated activation of immune cells in vitro; format: cell-based
[4] = system: rat collagen-induced arthritis model; test: rat collagen-induced arthritis model; format: in vivo
[5] = system: rat antibody-mediated arthus model; test: rat antibody-mediated arthus model; format: in vivo
[6] = system: spontaneous canine pemphigus foliaceus; test: spontaneous canine pemphigus foliaceus; format: in vivo
[7] = system: blood platelets; test: ex vivo platelet aggregation, standard panel of platelet agonists; format: cell-based, human; conditions: for platelet aggregation: ≤1 μM, standard panel of platelet agonists
[8] = in vivo
[9] = target: P-gp (Homo sapiens, UniProt P08183); conditions: not told
Sequence of P-gp (P08183 whole entry): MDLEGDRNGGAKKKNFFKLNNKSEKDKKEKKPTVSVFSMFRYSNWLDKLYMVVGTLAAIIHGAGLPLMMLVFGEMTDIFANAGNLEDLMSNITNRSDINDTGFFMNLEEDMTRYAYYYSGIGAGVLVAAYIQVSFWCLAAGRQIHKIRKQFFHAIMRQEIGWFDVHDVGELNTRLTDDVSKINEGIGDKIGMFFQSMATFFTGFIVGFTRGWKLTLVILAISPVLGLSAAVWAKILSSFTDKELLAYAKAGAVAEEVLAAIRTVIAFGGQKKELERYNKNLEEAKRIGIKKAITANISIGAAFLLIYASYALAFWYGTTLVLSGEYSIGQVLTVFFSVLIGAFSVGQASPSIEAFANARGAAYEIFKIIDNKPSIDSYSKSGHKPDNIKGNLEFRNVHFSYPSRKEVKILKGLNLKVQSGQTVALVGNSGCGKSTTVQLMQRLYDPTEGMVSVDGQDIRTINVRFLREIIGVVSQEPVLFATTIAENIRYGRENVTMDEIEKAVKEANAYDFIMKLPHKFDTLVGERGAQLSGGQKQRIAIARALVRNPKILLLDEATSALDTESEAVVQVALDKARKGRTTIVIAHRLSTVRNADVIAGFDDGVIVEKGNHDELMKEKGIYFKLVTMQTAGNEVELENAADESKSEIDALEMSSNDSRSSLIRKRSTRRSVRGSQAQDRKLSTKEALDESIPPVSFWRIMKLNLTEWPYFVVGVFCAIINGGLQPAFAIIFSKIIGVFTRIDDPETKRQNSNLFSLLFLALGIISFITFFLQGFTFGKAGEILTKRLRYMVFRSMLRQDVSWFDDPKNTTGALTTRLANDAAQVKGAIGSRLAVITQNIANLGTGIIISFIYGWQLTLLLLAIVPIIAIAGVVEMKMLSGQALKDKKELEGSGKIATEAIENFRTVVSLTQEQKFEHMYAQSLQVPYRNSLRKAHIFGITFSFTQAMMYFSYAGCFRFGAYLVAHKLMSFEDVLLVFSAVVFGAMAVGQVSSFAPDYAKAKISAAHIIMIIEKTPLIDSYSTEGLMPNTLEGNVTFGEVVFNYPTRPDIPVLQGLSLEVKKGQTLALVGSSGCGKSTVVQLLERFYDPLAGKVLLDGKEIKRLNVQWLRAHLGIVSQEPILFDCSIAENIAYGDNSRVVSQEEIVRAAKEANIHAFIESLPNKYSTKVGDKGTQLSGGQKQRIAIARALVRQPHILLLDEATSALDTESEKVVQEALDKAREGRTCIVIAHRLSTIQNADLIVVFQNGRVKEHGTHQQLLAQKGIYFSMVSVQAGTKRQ

[10] = system: CYP3A
[11] = in vivo; remark: listed apart in the source
Description: TEAEs include all AEs that start on or after the first dose of study medication, or AEs that are present prior to the first dose of study medication, but their severity or relationship increases after the first dose of study medication up to and including the final study medication dosing date. Within each preferred term, patients are counted only once if they had more than one event reported during the dosing period.
Non-hematologic DLT is considered any >Grade 3 non-hematologic toxicity per the NCI Common Terminology Criteria for Adverse Events (CTCAE), version 4.0, with the following exceptions: laboratory TEAEs that are asymptomatic and return to baseline or to Grade 1 within 7 days; fatigue; nausea, vomiting or diarrhea that return to baseline or Grade 1 within 7 days; and systemic reactions (such as, e.g., fever, headache) that return to baseline or Grade 1 within 7 days. Any toxicity that, at the discretion of the Investigator, is thought to warrant withholding the study drug for more than 7 days is also considered a DLT.
The AE Collection Period begins at the time of the first screening/eligibility assessment and ends at the end of the study for each patient. […] An AE can therefore be any unfavorable and unintended sign (including an abnormal laboratory finding, for example), symptom, or disease temporally associated with the use of an investigational product, whether or not considered related to the product. Investigators are instructed to record all AEs encountered during the clinical study in detail from the date of participant consent throughout the study follow-up period. Pre-existing conditions that worsen during a study are reported as AEs.
Investigators are instructed to report all clinical AEs encountered during the study. The intensity of AEs is graded based on the NCI CTCAE, Version 4.0 or higher. For any AEs not found in the CTCAE, a description of intensity grading can be found below: • Grade 1: Mild; asymptomatic or mild symptoms; clinical or diagnostic observations only; intervention not indicated. • Grade 2: Moderate; minimal, local or noninvasive intervention indicated; limiting age-appropriate instrumental activities of daily living. • Grade 3: Severe or medically significant but not immediately life-threatening; hospitalization or prolongation of hospitalization indicated; disabling; limiting self-care activities of daily living.

[12] = Phase 1 study, healthy volunteers; cited from earlier work
[13] = clinical; conditions: human, in vivo
[14] = system: pemphigus patients; test: human pemphigus (PV; Study PRN1008-005)
[15] = system: mouse model of anti-platelet driven immune thrombocytopenia; test: mouse model of immune thrombocytopenia, platelet count

SMILES: CC(C)(C=C(C#N)C(=O)N1CCC[C@@H](n2nc(-c3ccc(Oc4ccccc4)cc3F)c3c(N)ncnc32)C1)N1CCN(C2COC2)CC1 [PRN1008, (R)-2-[3-[4-amino-3-(2-fluoro-4-phenoxy-phenyl)pyrazolo[3,4-d]pyrimidin-1-yl]piperidine-1-carbonyl]-4-methyl-4-[4-(oxetan-3-yl)piperazin-1-yl]pent-2-enenitrile]
- number of kinases with >90% inhibition [1]: 6 kinases
- human B cell activation [2]: profoundly inhibits
- antibody (IgG, IgE) mediated activation of immune cells via Fc receptor signaling [3]: blocks
- anti-inflammatory effects [4]: rapid and significant anti-inflammatory effects
- anti-inflammatory effects [5]: rapid and significant anti-inflammatory effects
- anti-inflammatory effects [6]: rapid and significant anti-inflammatory effects
- platelet aggregation ([7]; blood of ITP patients): no effect
- platelet aggregation ([7]; blood of healthy volunteers): no effect
- collagen-induced platelet aggregation ([7]; normal or ITP patient platelet samples, clinically relevant concentrations): did not impact
- impact of food on extent of absorption [8]: does not appear to impact
- P-gp substrate [9]: substrate
- CYP3A inhibitor [10]: inhibitor
- CYP3A substrate [10]: substrate
- All related TEAEs, Grade 1 ([11]; human): 10 (21) n (%)
- All related TEAEs, Grade 2 ([11]; human): 11 (23) n (%)
- Related TEAEs, Abdominal distension, Grade 1/2 ([11]; human): 3 (10) n (%)
- Related TEAEs, All TEAEs, Grade 1/2 ([11]; human): 11 (35) n (%)
- Related TEAEs, Diarrhea, Grade 1 ([11]; human): 14 (30) n (%)
- Related TEAEs, Diarrhea, Grade 1/2 ([11]; human): 7 (23) n (%)
- Related TEAEs, Diarrhea, Grade 2 ([11]; human): 2 (4) n (%)
- Related TEAEs, Fatigue, Grade 1 ([11]; human): 5 (11) n (%)
- Related TEAEs, Fatigue, Grade 1/2 ([11]; human): 3 (10) n (%)
- Related TEAEs, Fatigue, Grade 2 ([11]; human): 1 (2) n (%)
- Related TEAEs, Nausea, Grade 1 ([11]; human): 12 (26) n (%)
- Related TEAEs, Nausea, Grade 1/2 ([11]; human): 8 (26) n (%)
- Related TEAEs, Nausea, Grade 2 ([11]; human): 1 (2) n (%)
- dose-limiting toxicities [11]: No dose-limiting toxicities were observed
- related serious adverse events [11]: No related serious adverse events were reported
- thrombotic events [11]: no thrombotic events
- treatment related bleeding or thrombotic events [11]: no reported treatment related bleeding or thrombotic events
- most commonly reported adverse events [12]: gastrointestinal adverse events, including nausea/vomiting and diarrhea
- serious adverse events or deaths [12]: No serious adverse events or deaths were reported
- Tmax [13]: ~2.5 h
- half-life ([13]; po): 3 to 4 h
- onset of clinical effect in most pemphigus patients ([14]; Study PRN1008-005): ≤ 4 weeks
- anti-inflammatory effects ([14]; human pemphigus vulgaris (PV)): rapid and significant anti-inflammatory effects
- platelet decrease from baseline ([15]; 10 mg/kg/d, anti-platelet challenge (vehicle 83.1%)): 71.9%
- platelet-loss (consumption) ([15]; mouse model of immune thrombocytopenia): significant dose dependent reduction
